{"source": "paper PMC8237303", "about": "(Heliyon, 2021)", "key": {"[1]": {"system": "Glutamate receptor (Kainate)", "experiment": "[3H]-Kainic Acid binding assay", "details": "0.1 mM l-menthol; Rat whole brain"}, "[2]": {"target": "Adenosine A3 receptor (Human) (Homo sapiens, UniProt P0DMS8)", "sequence (P0DMS8 whole entry)": "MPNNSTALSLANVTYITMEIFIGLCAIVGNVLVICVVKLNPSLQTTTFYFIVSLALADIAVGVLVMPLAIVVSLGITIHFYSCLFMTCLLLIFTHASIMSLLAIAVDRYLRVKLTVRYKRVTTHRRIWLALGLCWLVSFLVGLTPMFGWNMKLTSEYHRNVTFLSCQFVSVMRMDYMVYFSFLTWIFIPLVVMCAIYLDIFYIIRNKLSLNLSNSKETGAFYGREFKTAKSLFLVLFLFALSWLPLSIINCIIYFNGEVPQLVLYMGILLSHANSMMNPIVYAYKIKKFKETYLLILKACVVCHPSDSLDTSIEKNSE", "experiment": "[125I]-AB-MECA binding assay", "details": "0.1 mM l-menthol; Human recombinant"}, "[3]": {"system": "Imidazoline receptor (Central)", "experiment": "[3H]RX 781094", "type": "binding", "details": "0.1 mM l-menthol; Rat cerebral cortex"}, "[4]": {"target": "α2B-Adrenergic receptor (Human) (Homo sapiens, UniProt P18089)", "sequence (P18089 whole entry)": "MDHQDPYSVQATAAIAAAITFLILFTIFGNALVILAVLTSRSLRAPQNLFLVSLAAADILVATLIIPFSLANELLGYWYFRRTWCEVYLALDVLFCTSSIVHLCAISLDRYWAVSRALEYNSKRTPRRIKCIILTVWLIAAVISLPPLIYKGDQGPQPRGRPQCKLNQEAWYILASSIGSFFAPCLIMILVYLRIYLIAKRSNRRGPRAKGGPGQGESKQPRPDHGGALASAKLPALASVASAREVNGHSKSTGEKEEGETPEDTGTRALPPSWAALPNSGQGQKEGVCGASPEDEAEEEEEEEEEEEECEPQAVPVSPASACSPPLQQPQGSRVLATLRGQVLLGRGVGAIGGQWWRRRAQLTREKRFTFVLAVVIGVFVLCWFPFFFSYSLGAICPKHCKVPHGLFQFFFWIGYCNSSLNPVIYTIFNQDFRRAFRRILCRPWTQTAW", "type": "binding"}, "[5]": {"system": "Ca channel (Type L, Benzothiazepine)", "experiment": "[3H]-", "type": "binding", "details": "0.1 mM l-menthol; Rat cerebral cortex"}, "[6]": {"system": "Ca Channel (Type L, Dihydropyridine)", "experiment": "[3H]-PN200-110 binding assay", "details": "0.1 mM l-menthol; Rat cerebral cortex"}, "Leukotriene D4 receptor": {"target": "Leukotriene D4 receptor (Cavia porcellus, UniProt Q2NNR5)", "sequence (Q2NNR5 whole entry)": "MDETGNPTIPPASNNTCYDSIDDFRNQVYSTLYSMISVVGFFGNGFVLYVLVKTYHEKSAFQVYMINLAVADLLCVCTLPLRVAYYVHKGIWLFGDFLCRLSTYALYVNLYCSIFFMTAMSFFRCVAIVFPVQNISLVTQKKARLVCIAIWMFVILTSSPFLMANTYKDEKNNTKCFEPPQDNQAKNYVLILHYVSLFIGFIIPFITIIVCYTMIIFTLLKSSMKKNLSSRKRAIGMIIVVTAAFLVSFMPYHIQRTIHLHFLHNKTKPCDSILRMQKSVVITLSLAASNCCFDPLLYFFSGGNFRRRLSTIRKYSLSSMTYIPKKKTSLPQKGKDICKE", "experiment": "[3H]-Leukotriene D4 binding assay", "details": "0.1 mM l-menthol; Guinea pig lung"}, "[7]": {"target": "Angiotensin AT2 receptor (Human) (Homo sapiens, UniProt P50052)", "sequence (P50052 whole entry)": "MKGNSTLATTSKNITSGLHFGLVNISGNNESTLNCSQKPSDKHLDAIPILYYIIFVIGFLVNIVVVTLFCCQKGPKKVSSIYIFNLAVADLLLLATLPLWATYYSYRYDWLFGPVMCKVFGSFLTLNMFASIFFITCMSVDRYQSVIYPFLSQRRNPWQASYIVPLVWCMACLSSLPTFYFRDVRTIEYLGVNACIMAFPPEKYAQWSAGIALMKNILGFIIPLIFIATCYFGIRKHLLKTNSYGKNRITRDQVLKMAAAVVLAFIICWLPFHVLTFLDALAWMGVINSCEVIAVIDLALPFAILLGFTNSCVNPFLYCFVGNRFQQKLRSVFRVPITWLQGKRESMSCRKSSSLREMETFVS", "experiment": "[125I]-CGP-42112A binding assay", "details": "0.1 mM l-menthol; Human recombinant"}, "[8]": {"target": "Endothelin ETB receptor (Human) (Homo sapiens, UniProt P24530)", "sequence (P24530 27-442)": "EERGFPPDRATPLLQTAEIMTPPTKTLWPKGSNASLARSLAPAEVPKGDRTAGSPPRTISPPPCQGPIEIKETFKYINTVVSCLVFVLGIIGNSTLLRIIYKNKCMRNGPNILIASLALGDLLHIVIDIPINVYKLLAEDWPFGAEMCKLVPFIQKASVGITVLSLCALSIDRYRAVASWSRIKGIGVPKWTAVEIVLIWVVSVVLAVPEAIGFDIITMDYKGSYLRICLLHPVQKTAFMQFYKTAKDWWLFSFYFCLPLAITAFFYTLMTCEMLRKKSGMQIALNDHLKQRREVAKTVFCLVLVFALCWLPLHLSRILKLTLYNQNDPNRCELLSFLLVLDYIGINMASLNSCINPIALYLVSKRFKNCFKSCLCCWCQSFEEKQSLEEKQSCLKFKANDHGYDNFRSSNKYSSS", "experiment": "[125I]-Endothelin-1", "type": "binding", "details": "0.1 mM l-menthol; Human recombinant"}, "[9]": {"target": "Dopamien D1 receptor (Human) (Homo sapiens, UniProt P21728)", "sequence (P21728 whole entry)": "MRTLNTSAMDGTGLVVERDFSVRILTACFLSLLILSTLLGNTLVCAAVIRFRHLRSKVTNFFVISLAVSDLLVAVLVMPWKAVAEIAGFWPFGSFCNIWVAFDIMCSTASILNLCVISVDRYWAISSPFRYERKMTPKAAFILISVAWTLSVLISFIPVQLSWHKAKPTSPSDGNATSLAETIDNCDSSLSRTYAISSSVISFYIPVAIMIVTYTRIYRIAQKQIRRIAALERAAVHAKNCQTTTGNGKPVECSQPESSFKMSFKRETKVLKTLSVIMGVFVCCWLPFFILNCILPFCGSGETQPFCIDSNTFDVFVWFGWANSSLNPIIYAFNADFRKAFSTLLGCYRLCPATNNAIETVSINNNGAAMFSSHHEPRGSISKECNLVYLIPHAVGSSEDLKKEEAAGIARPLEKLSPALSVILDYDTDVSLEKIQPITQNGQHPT", "experiment": "[3H]–SCH–23390 hydrochloride binding assay", "details": "0.1 mM l-menthol; Human recombinant"}, "[10]": {"target": "α2C-Adrenergic receptor (Human) (Homo sapiens, UniProt P18825)", "sequence (P18825 whole entry)": "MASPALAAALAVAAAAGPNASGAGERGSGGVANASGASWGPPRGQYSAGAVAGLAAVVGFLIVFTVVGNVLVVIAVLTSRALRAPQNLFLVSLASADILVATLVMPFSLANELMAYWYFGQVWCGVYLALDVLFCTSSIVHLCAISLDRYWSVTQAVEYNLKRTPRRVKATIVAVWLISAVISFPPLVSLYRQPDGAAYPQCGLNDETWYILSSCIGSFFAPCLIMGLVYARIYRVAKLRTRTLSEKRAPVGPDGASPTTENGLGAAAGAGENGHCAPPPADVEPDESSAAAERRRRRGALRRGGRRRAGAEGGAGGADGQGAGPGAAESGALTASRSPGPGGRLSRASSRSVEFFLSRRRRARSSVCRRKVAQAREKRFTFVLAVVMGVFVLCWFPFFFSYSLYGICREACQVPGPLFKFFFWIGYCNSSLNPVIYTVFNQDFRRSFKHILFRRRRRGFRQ", "experiment": "[3H]-Rauwolscine hydrochloride binding assay", "details": "0.1 mM l-menthol; Human recombinant"}, "[11]": {"target": "Histamine H3 receptor (Human) (Homo sapiens, UniProt Q9Y5N1)", "sequence (Q9Y5N1 whole entry)": "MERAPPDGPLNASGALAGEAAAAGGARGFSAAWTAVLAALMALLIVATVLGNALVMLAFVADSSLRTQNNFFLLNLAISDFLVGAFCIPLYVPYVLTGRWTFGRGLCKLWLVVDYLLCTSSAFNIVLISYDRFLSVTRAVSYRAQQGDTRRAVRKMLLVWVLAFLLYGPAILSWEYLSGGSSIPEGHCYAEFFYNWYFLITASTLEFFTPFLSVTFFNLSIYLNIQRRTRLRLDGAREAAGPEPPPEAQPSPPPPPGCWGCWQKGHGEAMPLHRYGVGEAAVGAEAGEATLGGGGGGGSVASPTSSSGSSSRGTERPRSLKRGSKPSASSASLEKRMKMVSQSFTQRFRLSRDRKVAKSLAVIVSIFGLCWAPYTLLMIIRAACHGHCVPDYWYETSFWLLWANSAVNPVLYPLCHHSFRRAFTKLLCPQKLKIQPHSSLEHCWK", "experiment": "N-alpha-[3H]-Methylhistamine, Dihydrochloride binding assay", "details": "0.1 mM l-menthol; Human recombinant"}}, "data": [{"smiles": "CC(C)[C@@H]1CC[C@@H](C)C[C@H]1O", "note": "[l-menthol]", "values": [{"measurement": "Inhibition by l-Menthol (%)", "setting": "[1]", "value": 0.14, "unit": "%"}, {"measurement": "Inhibition by l-Menthol (%)", "setting": "[2]", "value": 8.22, "unit": "%"}, {"measurement": "Inhibition by l-Menthol (%)", "setting": "[3]", "value": 6.53, "unit": "%"}, {"measurement": "Inhibition by l-Menthol (%)", "setting": "[4]", "value": 2.87, "unit": "%"}, {"measurement": "Inhibition by l-Menthol (%)", "setting": "[5]", "value": 0, "unit": "%"}, {"measurement": "Inhibition by l-Menthol (%)", "setting": "[6]", "value": 1.17, "unit": "%"}, {"measurement": "Inhibition by l-Menthol (%)", "setting": "Leukotriene D4 receptor", "value": 0, "unit": "%"}, {"measurement": "Inhibition by l-Menthol (%)", "setting": "[7]", "value": 0, "unit": "%"}, {"measurement": "Inhibition by l-Menthol (%)", "setting": "[8]", "value": 3.39, "unit": "%"}, {"measurement": "Inhibition by l-Menthol (%)", "setting": "[9]", "value": 0, "unit": "%"}, {"measurement": "Inhibition by l-Menthol (%)", "setting": "[10]", "value": 7.75, "unit": "%"}, {"measurement": "Inhibition by l-Menthol (%)", "setting": "[11]", "value": 0, "unit": "%"}]}]}
